Results as given in patent publication US12612412B2, “Antiviral heterocyclic compounds” (Enanta Pharmaceuticals, Inc., priority 2021, dated 2026).
Like-named read-outs stand apart in the source and are kept apart here.

Columns and labels:
[1] = system: HMPV clinical isolate TN/1501/A1; experiment: HMPV antiviral assay Method-B (clinical isolate TN/1501/A1 in LLC-MK2 cells, ATP-Lite readout); type: cell-based, Human metapneumovirus (HMPV); conditions: human metapneumovirus, LLC-MK2, 144 h, hMPV WT1501 (clinical isolate TN/1501/A1), 6 days
In short: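 LLC-MK2 cells infected in suspension with TN/1501/A1 at MOI 0.014 in serum-free medium with 2 μg/mL TPCK-trypsin (final), incubated 6 days at 37° C. Compounds tested in duplicate, 10-point 3-fold dilutions from 10 μM. Cell health read by ATP-Lite luminescence, normalised to virus-only and cells-only controls; EC50 by four-parameter logistic fit.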

[2] = system: genotype A, "Long" strain RSV; experiment: RSV-A assay (CPE protection in Hep-2 cells, ATPlite readout); type: cell-based, Human respiratory syncytial virus (HRSV); conditions: human respiratory syncytial virus, MOI 0.1, CPE protection
In short: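 In this cytopathic-effect protection format, infected Hep-2 cultures (MOI 0.1) are exposed to compound for 5 days. Surviving cell ATP is quantified with ATPlite, and EC50 is determined.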

[3] = RSV-A Long strain, read-out: Human RSV-A (“Long”) EC50
[4] = genotype A “Long” strain RSV, read-out: Human RSV-A (“Long”)

In the case of `C[C@]1(C(N)=O)COc2c1cc([C@@](O)(CNC(=O)c1ccc3nn(C4CC4)cc3c1)C1CC1)nc2-c1cccc(Br)c1F` [Example 1100], the EC50 [1] is reported as under 500 nM and the EC50 [2, 3] is reported as under 200 nM.

Molecule `Cc1cnc2c(Cl)cc(C(=O)NC[C@](O)(c3cc4c(c(-c5ccc(F)c(F)c5Cl)n3)OC[C@]4(C)C(N)=O)C(F)(F)F)cc2c1` [Example 779] has an EC50 [1] of under 500 nM and an EC50 [2, 4] of under 200 nM.

In the case of `COc1ccc(C(=O)NC[C@](O)(c2cc3c(c(-c4ccc(F)cc4)n2)OC[C@]3(C)C(N)=O)C(F)(F)F)n2cc(C3CC3)nc12` [Example 695], the EC50 [1] is reported as over 500 nM and the EC50 [2, 4] is reported as under 200 nM.

In the case of `COc1cc(C(=O)NC[C@](O)(c2cc3c(c(-c4ccc(OC(F)(F)F)cc4)n2)OC[C@]3(C)C(N)=O)C(F)(F)F)cc2cn(C3CC3)nc12` [Example 898], the EC50 [1] is reported as over 500 nM and the EC50 [2, 3] is reported as under 200 nM.

`COc1cc(C(=O)NC[C@](O)(c2cc3c(c(-c4ccc(F)c(F)c4F)n2)OC[C@]3(C)C(N)=O)C2CC2)cc2cc(Br)cnc12` [Example 532] gave an EC50 [1] of under 500 nM and an EC50 [2, 4] of under 200 nM.

Work on `C[C@]1(C(N)=O)COc2c1cc([C@@](O)(CNC(=O)c1cc(OC3CC3)c3ncc(C#N)cc3c1)C(F)(F)F)nc2-c1ccc(F)cc1` [Example 1133] yielded an EC50 [1] of over 500 nM and an EC50 [2, 3] of under 200 nM.

Molecule `COc1cc(C(=O)NC[C@](O)(c2cc3c(c(-c4cc(F)c(F)cc4F)n2)OC[C@]3(C)C(N)=O)C2CC2)cc2cc(Br)cnc12` [Example 1149] has an EC50 [1] of under 500 nM and an EC50 [2, 3] of under 200 nM.

With `COc1cc(C(=O)NC[C@](O)(c2cc3c(c(-c4cccc(Cl)c4F)n2)OC[C@]3(C)C(N)=O)C(F)(F)F)cc2cn(C3CC3)nc12` [Example 922] the EC50 [1] was under 500 nM and the EC50 [2, 3] was under 200 nM.

`C[C@]1(C(N)=O)COc2c1cc([C@@](O)(CNC(=O)c1cc(Cl)c3nn(C4CC4)cc3c1)C(F)(F)F)nc2-c1cccc(F)c1Cl` [Example 1119] showed an EC50 [1] of under 500 nM and an EC50 [2, 3] of under 200 nM.

`COc1cc(C(=O)NC[C@](O)(c2cc3c(c(-c4ccc(F)c(Cl)c4)n2)OC[C@]3(C)C(N)=O)C2(F)CC2)cc2cn(C3CC3)nc12` [Example 714] was tested, and the EC50 [1] was under 500 nM and the EC50 [2, 4] was under 200 nM.

Work on `COc1cc(C(=O)NC[C@](O)(c2cc3c(c(-c4ccc(F)c(F)c4Cl)n2)OC[C@]3(C)C(N)=O)C(F)(F)F)cc2cn(C(F)F)nc12` [Example 776] yielded an EC50 [1] of under 500 nM and an EC50 [2, 4] of under 200 nM.

`COc1cc(C(=O)NC[C@](O)(c2cc3c(c(-c4cc(Cl)c(F)cc4F)n2)OC[C@]3(C)C(N)=O)C2(F)CC2)cc2cc(Br)c(C)nc12` [Example 1127] showed an EC50 [1] of under 500 nM and an EC50 [2, 3] of under 200 nM.

With `COc1cc(C(=O)NC[C@](O)(c2nc(-c3ccc(F)c(Cl)c3F)c3c(c2F)[C@@](C)(C(N)=O)CO3)C2CC2)cc2cn(C3CC3)nc12` [Example 1160] the EC50 [1] was under 500 nM and the EC50 [2, 3] was under 200 nM.

`COc1cc(C(=O)NC[C@](O)(c2nc(-c3cc(Cl)c(F)cc3F)c3c(c2Cl)[C@@](C)(C(N)=O)CO3)C2CC2)cc2cn(C3CC3)nc12` [Example 1081] showed an EC50 [1] of under 500 nM and an EC50 [2, 3] of under 200 nM.

In the case of `C[C@]1(C(N)=O)COc2c1cc([C@@](O)(CNC(=O)c1cc(Cl)c3nn(C4(F)CC4)cc3c1)C1CC1)nc2-c1ccc2c(c1)OC(F)(F)O2` [Example 849], the EC50 [1] is reported as under 500 nM and the EC50 [2, 3] is reported as under 200 nM.

Work on `COc1cc(C(=O)NC[C@](O)(c2cc3c(c(-c4c(F)ccc(Cl)c4F)n2)OC[C@]3(C)C(N)=O)C2CC2)cc2cc(Cl)c(C)nc12` [Example 1168] yielded an EC50 [1] of under 500 nM and an EC50 [2, 3] of under 200 nM.

`C[C@]1(C(N)=O)COc2c1cc([C@@](O)(CNC(=O)c1cc(F)c3nn(C4(F)CC4)cc3c1)C1CC1)nc2-c1ccc2c(c1)OC(F)(F)O2` [Example 848] gave an EC50 [1] of under 500 nM and an EC50 [2, 3] of under 200 nM.

In the case of `COc1cc(C(=O)NC[C@](O)(c2cc3c(c(-c4ccc(C(F)(F)F)cc4)n2)OC[C@]3(C)C(N)=O)C2CC2)cc2cn(C(F)F)nc12` [Example 796], the EC50 [1] is reported as under 500 nM and the EC50 [2, 4] is reported as under 200 nM.

For `C[C@]1(C(N)=O)COc2c1cc([C@@](O)(CNC(=O)c1cc(Cl)c3nn(C4CC4)cc3c1)C1(F)CC1)nc2-c1ccc(F)c(F)c1F` [Example 757], the EC50 [1] was under 500 nM and the EC50 [2, 4] was under 200 nM.

In the case of `Cc1cnc2c(OC(F)F)cc(C(=O)NC[C@](O)(c3cc4c(c(-c5ccc(F)cc5)n3)OC[C@]4(C)C(N)=O)C3(F)CC3)cc2c1` [Example 710], the EC50 [1] is reported as under 500 nM and the EC50 [2, 4] is reported as under 200 nM.

Molecule `COc1cc(C(=O)NC[C@](O)(c2cc3c(c(-c4ccc5c(c4)OC(F)(F)O5)n2)OC[C@@]3(C(N)=O)C(F)F)C(F)(F)F)cc2cn(C3CC3)nc12` [Example 1035] has an EC50 [1] of under 500 nM and an EC50 [2, 3] of under 200 nM.

`Cc1cnc2c(Nc3cnccn3)cc(C(=O)NC[C@](O)(c3cc4c(c(-c5ccc6c(c5)OC(F)(F)O6)n3)OC[C@]4(C)C(N)=O)C3CC3)cc2c1` [Example 773] gave an EC50 [1] of under 500 nM and an EC50 [2, 4] of under 200 nM.

`COc1cc(C(=O)NC[C@](O)(c2cc3c(c(-c4ccc(F)cc4)n2)OC[C@]3(C)C(N)=O)C(F)(F)F)n2ccnc2c1` [Example 691] was tested, and the EC50 [1] was over 500 nM and the EC50 [2, 4] was under 200 nM.

Work on `COc1cc(C(=O)NC[C@](O)(c2cc3c(c(-c4ccc(F)c(F)c4F)n2)OC[C@@]3(C(N)=O)C(F)F)C(F)(F)F)cc2cc(Cl)c(C)nc12` [Example 1041] yielded an EC50 [1] of under 500 nM and an EC50 [2, 3] of under 200 nM.

With `C[C@]1(C(N)=O)COc2c1cc([C@@](O)(CNC(=O)c1cc(F)c3nn(C4CC4)cc3c1)C1CC1)nc2-c1csc2c(F)cccc12` [Example 608] the EC50 [1] was under 500 nM and the EC50 [2, 4] was under 200 nM.

For `COc1cc(C(=O)NC[C@](O)(c2cc3c(c(-c4ccc5c(c4)OC(F)(F)O5)n2)OC[C@]3(C)C(N)=O)C2CC2)cc2cn(C3CC3)nc12` [Example 816], the EC50 [1] was under 500 nM and the EC50 [2, 4] was under 200 nM.

For `COc1cc(C(=O)NC[C@](O)(c2cc3c(c(-c4ccc(F)c(F)c4Cl)n2)OC[C@]3(C)C(N)=O)C2CC2)cc2cn(C3CC3)nc12` [Example 533], the EC50 [1] was under 500 nM and the EC50 [2, 4] was under 200 nM.

`COc1cc(C(=O)NC[C@](O)(c2cc3c(c(-c4ccc(F)cc4)n2)OC[C@@]3(C(N)=O)C(F)F)C2CC2)cc2cc(Cl)c(C)nc12` [Example 1031] was tested, and the EC50 [1] was under 500 nM and the EC50 [2, 3] was under 200 nM.

In the case of `COc1cc(C(=O)NC[C@](O)(c2cc3c(c(-c4cc(F)c(F)c(F)c4F)n2)OC[C@]3(C)C(N)=O)C(F)(F)F)cc2cn(C3CC3)nc12` [Example 996], the EC50 [1] is reported as under 500 nM and the EC50 [2, 3] is reported as under 200 nM.

`COc1cc(C(=O)NC[C@](O)(c2cc3c(c(-c4ccc(F)c(F)c4Cl)n2)OC[C@]3(C)C(N)=O)C(F)(F)F)cc2cn(C3(F)CC3)nc12` [Example 775] gave an EC50 [1] of under 500 nM and an EC50 [2, 4] of under 200 nM.

Work on `COc1cc(C(=O)NC[C@](O)(c2cc3c(c(-c4ccc5c(c4)OC(F)(F)O5)n2)OC[C@]3(C)C(N)=O)C2(F)CC2)cc2cn(C3(F)CC3)nc12` [Example 725] yielded an EC50 [1] of under 500 nM and an EC50 [2, 4] of under 200 nM.

`Cc1cnc2c(OC(F)F)cc(C(=O)NC[C@](O)(c3cc4c(c(-c5ccc(F)c(F)c5Cl)n3)OC[C@]4(C)C(N)=O)C(F)(F)F)cc2c1` [Example 781] showed an EC50 [1] of under 500 nM and an EC50 [2, 4] of under 200 nM.

Molecule `COc1cc(C(=O)NC[C@](O)(c2cc3c(c(-c4ccc5c(c4)OC(F)(F)O5)n2)OC[C@]3(C)C(N)=O)C(F)(F)F)cn2cc(C3CC3)nc12` [Example 639] has an EC50 [1] of under 500 nM and an EC50 [2, 4] of under 200 nM.

With `C[C@]1(C(N)=O)COc2c1cc([C@@](O)(CNC(=O)c1cc(OC3CC3)n3nc(C4CC4)cc3c1)C(F)(F)F)nc2-c1ccc(F)c(F)c1F` [Example 508] the EC50 [1] was under 500 nM and the EC50 [2, 4] was under 200 nM.

With `COc1cc(C(=O)NC[C@](O)(c2cc3c(c(-c4ccc5c(c4)OC(F)(F)O5)n2)OC[C@@]3(C(N)=O)C(F)F)C2CC2)cc2cn(C3(F)CC3)nc12` [Example 1042] the EC50 [1] was under 500 nM and the EC50 [2, 3] was under 200 nM.
